Measurements reported in US20130190407A1, “CALCIUM RECEPTOR-ACTIVE MOLECULES” (NPS Pharmaceuticals, Inc., priority 1991, published 2013).

Assays:
HuPCaR 5.2 = target: T1, HuPCaR 5.2 (Homo sapiens, UniProt P41180, E1011Q/Q926R); test: [Ca2+]i (fura-2) in HEK293 cells transfected with HuPCaR 5.2; type: cell-based
T1 construct: appear to be full-length clones corresponding to the 5 Kb mRNA; expressed in transfected cells; host or cells: HEK293 cells, hygromycin-selected pool, Cep4B vector with the HuPCaR 5.2 insert
T1 sequence (P41180 20-1088 isoform P41180-2 Q936R/E1021Q): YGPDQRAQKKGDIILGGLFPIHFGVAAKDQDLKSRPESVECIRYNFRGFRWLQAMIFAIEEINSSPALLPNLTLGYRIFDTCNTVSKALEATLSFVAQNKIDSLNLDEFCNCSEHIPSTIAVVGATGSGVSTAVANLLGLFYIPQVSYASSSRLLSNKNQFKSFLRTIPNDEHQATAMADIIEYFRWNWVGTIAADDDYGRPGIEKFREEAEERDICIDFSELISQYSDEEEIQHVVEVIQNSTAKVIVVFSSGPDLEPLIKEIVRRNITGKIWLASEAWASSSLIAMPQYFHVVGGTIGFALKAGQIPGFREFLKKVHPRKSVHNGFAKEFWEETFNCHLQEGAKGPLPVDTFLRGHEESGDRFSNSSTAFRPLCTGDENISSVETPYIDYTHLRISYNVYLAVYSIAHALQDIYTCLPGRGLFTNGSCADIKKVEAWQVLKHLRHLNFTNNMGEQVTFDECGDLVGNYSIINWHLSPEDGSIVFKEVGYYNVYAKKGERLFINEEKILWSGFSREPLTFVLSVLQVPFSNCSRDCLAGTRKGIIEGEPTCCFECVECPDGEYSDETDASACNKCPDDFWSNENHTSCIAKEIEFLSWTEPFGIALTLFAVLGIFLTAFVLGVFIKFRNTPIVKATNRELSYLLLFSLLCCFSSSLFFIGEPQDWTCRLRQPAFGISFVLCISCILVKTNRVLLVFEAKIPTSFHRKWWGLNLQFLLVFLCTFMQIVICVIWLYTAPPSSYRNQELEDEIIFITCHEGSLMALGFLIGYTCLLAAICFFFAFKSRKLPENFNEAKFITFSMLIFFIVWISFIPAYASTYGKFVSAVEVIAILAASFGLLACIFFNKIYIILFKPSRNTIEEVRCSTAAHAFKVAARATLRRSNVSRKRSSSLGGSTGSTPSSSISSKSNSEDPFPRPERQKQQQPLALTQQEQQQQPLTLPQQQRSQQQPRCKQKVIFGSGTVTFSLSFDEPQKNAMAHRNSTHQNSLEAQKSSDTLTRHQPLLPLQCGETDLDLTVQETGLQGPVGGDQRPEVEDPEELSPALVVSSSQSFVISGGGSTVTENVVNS
Experimental: Cells obtained from the pool of hygromycin selected HEK293 cells transfected with Cep4B containing the HuPCaR 5.2 insert were plated on collagen coated Aklar squares which had been placed into individual wells of 12-well tissue culture plates. Two to six days later, medium was removed and the cells washed with balanced salt solution and 1 ml of buffer containing 1 μM fura2-AM, 1 mM CaCl2 and 0.1% BSA and 1 mM CaCl2. Measurements of fluorescence in response to calcium receptor agonists were performed at 37° C. in a spectrofluorimeter using excitation and emission wavelengths of 340 and 510 nm, respectively. For signal calibration, Fmax was determined after addition of ionomycin (40 μM) and the apparent Fmin was determined by addition of 0.3 M EGTA, 2.5 M Tris-HCl; pH 10.

[1] = system: healthy, post-menopausal person; test: Placebo-controlled single-dose, dose-escalation study in a human; type: in vivo
Excerpt: A range of single oral doses was used to assess safety, tolerance, and changes in primary hyperparathyroidism markers (e.g., plasma concentrations of parathyroid hormone and ionized serum calcium) and of serum calcitonin.

Row | SMILES | intracellular calcium (HuPCaR 5.2) | Serum PTH ([1]; 20 mg single oral dose, 1 h) [pg/mL] | Serum PTH ([1]; 240 mg single oral dose, 0.5 h) [pg/mL] | serum ionized calcium concentration ([1]; at higher doses) | serum calcitonin ([1]; at the doses studied) | plasma PTH concentration ([1]; single oral doses)
1 | COc1cccc([C@@H](C)NCCCc2ccccc2)c1 (single isomer, unassigned) [NPS R-467] | Robust increases in intracellular calcium | – | – | – | – | –
2 | COc1cccc([C@@H](C)NCCCc2ccccc2Cl)c1 [NPS R-568, (R)-(+)-N-[3-(2-chlorophenyl)propyl]-α-methyl-3-methoxybenzylamine] | – | 18 | 18 | decrease in serum ionized calcium concentration | no apparent change in serum calcitonin | transient dose-dependent decrease in plasma PTH concentration
